Laboratory results from patent US7785807B2, “Voltage-gated, pH-sensitive anion channel and its novel splice variant involved in taste sensation” (Monell Chemical Senses Center, priority 2004, dated 2010).
Entries after “also recorded” stand apart in the source; their conditions may differ.

What was measured:
Format in all cases: cell-based
ClC-4A = molecular target: T1, ClC-4A (Mus musculus, UniProt Q61418); test: Two-electrode voltage-clamp recording of ClC-4A expressed in Xenopus oocytes, chloride channel inhibitor effect
T1 construct: expressed in transfected cells; host or cells: Xenopus laevis oocytes injected with in vitro transcribed cRNA
T1 sequence (Q61418 61-747): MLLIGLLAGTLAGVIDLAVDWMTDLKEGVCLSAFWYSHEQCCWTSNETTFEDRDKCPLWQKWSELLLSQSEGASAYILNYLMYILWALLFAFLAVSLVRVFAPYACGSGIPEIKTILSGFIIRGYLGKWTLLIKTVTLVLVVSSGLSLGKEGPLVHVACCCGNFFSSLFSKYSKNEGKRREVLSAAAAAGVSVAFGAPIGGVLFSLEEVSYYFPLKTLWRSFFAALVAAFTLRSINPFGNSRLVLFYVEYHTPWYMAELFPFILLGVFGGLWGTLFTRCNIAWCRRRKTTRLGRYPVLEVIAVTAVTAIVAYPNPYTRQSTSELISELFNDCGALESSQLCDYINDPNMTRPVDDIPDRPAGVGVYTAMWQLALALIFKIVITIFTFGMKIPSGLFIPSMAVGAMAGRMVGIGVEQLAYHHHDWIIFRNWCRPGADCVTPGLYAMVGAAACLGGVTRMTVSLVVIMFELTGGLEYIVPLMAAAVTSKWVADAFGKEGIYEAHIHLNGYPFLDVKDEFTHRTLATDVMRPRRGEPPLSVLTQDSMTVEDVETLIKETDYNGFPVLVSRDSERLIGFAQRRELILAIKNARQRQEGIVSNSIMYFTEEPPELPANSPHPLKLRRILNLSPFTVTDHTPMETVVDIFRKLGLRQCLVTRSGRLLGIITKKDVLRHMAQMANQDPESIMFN
Description: (§1) ClC-4 and ClC-4A cDNAs were subcloned into the expression vector pCR Blunt II TOPO. Capped sense cRNA was synthesized from the linearized expression constructs by T7 RNA polymerase with nMessage mMachine in vitro transcription kit and tailed with polyA tailing kit (Ambion). The synthesized cRNA products were phenol extracted, ethyl alcohol precipitated, and then dissolved in nuclease-free water at about 0.5 ng/nl for injection. Dumont stage V or VI oocytes were obtained from adult female laboratory bred Xenopus laevis, and their follicles were removed by collagenase digestion. […] Membrane currents were recorded using the two-electrode voltage-clamp technique in ND96 solution (96 mM NaCl, 2 mM KCl, 1.8 mM CaCl2, 1 mM MgCl2, 5 mM Na-HEPES, pH 7.4). […]
(§2) Recording and current-passing micropipettes with tip resistance <5 MΩ when filled with 3 M KCl were pulled from glass capillaries (A-M Systems Inc., Carlsburg, Wash., USA) using a horizontal puller (Suffer P-80/PC). Currents were recorded with a GeneClamp 500 amplifier, digitized with a Digidata 1200 A/D-D/A system, and stored on a computer running pCLAMP 6 software (all from Axon Instruments, Foster City, Calif., USA). […]

human ClC-4 = molecular target: T2, human ClC-4 (Homo sapiens, UniProt P51793); test: Two-electrode voltage-clamp recording of human ClC-4 expressed in Xenopus oocytes, chloride channel inhibitor effect
T2 construct: one clone was isolated, which contained the entire coding region; expressed in transfected cells; host or cells: Xenopus laevis oocytes injected with in vitro transcribed cRNA
T2 sequence (P51793 1-760): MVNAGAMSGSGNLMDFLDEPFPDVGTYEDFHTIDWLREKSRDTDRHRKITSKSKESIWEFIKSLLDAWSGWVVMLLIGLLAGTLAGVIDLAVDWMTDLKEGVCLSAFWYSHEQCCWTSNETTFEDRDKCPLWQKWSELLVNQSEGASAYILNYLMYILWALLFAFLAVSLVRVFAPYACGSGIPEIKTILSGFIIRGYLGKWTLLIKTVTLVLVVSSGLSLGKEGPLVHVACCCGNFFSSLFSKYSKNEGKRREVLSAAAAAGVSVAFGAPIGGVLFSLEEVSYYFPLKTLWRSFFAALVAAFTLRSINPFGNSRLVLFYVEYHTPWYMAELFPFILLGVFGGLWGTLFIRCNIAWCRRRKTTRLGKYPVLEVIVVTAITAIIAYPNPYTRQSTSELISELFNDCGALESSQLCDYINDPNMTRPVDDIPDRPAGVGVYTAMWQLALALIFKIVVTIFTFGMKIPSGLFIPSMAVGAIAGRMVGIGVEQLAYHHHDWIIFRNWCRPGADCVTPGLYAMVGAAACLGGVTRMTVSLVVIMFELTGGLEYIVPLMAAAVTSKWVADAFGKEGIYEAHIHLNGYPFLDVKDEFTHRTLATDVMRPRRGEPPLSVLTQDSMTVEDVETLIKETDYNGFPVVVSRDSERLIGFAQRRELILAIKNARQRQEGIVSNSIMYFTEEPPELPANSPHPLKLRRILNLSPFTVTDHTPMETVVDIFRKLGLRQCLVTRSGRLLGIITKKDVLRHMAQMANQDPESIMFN
Description: as §1, §2

mouse ClC-4 = molecular target: T3, mouse ClC-4 (Mus musculus, UniProt Q61418); test: Two-electrode voltage-clamp recording of mouse ClC-4 expressed in Xenopus oocytes, chloride channel inhibitor effect
T3 construct: a pair of PCR primers was designed to encompass the entire coding region; expressed in transfected cells; host or cells: Xenopus laevis oocytes injected with in vitro transcribed cRNA
T3 sequence (Q61418 1-747): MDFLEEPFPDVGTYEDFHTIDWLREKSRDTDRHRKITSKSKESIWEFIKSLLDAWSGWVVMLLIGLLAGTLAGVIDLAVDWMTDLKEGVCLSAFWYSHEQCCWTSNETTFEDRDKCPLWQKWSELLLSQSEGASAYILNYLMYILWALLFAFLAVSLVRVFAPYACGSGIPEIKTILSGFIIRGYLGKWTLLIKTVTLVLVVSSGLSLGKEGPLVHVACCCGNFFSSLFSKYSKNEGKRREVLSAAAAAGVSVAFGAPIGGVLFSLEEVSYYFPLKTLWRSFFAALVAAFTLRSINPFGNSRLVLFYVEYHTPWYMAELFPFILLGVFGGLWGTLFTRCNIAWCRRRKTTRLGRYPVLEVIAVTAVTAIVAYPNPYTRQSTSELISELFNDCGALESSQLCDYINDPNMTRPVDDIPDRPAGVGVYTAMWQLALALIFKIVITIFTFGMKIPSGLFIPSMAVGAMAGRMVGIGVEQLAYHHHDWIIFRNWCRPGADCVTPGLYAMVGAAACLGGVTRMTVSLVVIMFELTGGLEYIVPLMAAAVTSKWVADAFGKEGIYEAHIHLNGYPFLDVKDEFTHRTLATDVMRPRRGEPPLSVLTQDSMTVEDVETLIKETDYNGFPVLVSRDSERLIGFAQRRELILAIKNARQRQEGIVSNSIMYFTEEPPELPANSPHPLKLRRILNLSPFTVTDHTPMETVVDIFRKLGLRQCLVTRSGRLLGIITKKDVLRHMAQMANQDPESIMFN
Description: as §1, §2

[1] = 0.3 mM NFA, pH 7.4, Xenopus oocytes
[2] = 0.1 mM NPPB, optimal pH, Xenopus oocytes

| inhibition on ion channel conductance (ClC-4A; 0.3 mM NFA, pH 5.5, Xenopus oocytes) | inhibition on ion channel conductance (human ClC-4; [1]) | inhibition on ion channel conductance (mouse ClC-4; [1]) | inhibition on ion channel conductance (human ClC-4; [2]) | inhibition on ion channel conductance (mouse ClC-4; [2]) | Compound | inhibition on ion channel conductance (ClC-4A; [2]) |
| --- | --- | --- | --- | --- | --- | --- |
| significantly inhibited | only a slight inhibitory effect | only a slight inhibitory effect |  |  | O=C(O)c1cccnc1Nc1cccc(C(F)(F)F)c1 [NFA, niflumic acid] |  |
|  |  |  | no apparent effect | no apparent effect | O=C(O)c1cc([N+](=O)[O-])ccc1NCCCc1ccccc1 [NPPB, 5-nitro-2-(3-phenylpropylamino)-benzoic acid] | slightly inhibit; also recorded: inhibited |
